{"source": "the supplement of paper PMC11208160"}
{"assay": "recombinant barcode read abundance after kanamycin selection (control-corrected) (log10(CPM+1)); higher = more efficient recombination; sequences stand for … in AGTGCAGAGAAAATCGGCCAGTTTTCTCTGCCTGCAGTCCGCATGCCGT…AGATTTATGCAGCGGACTGCCTTTCTCCCAAAGTGATAAACCGGACAGTATCATGGACCGGTTTTCCCGGTAATCCGTATTTGCAAGGTTGGTTTCACT; site = the 11-nt target", "experimental": "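Pooled E. coli target-specificity screen for the IS621 bridge recombinase. Each library plasmid pairs an 11-nt target (CT core) with a bridge RNA whose target-binding loop (9-nt LTG + 4-nt RTG) is reprogrammed; the rest of the 177-nt WT IS621 bridge RNA scaffold is fixed. The plasmid is co-electroporated with a WT donor plasmid; recombinase is induced with 0.1 mM IPTG and recombinants are selected on kanamycin. Recombinant barcodes are sequenced, converted to CPM, averaged over two biological replicates and corrected by the unselected control CPM. Molecule = full bridge RNA written as DNA: LTG = specificity nt 1-9, RTG = reverse complement of specificity nt 8-11, in the WT scaffold.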"}
{"sequence": "ACTTTAACTTGGGTTCTAACCTGTTGCTT (site ACTGTAACTAA)", "recombinant barcode read abundance (log10)": 0.0934}
{"sequence": "ACTTTAACTTGGGTTCTAACCTGTTGCTT (site ACTTTAACTAA)", "recombinant barcode read abundance (log10)": 0.217}
{"sequence": "ACTTTAGCTTGGGTTCTAACCTGTTGCAG (site ACATTAGCTTT)", "recombinant barcode read abundance (log10)": 0.056}
{"sequence": "ACTTTAGCTTGGGTTCTAACCTGTTGCAG (site ACTTTAGCTCT)", "recombinant barcode read abundance (log10)": 0.694}
{"sequence": "ACTTTGCCTTGGGTTCTAACCTGTTGCCT (site ACATTGCCTAG)", "recombinant barcode read abundance (log10)": 0.0554}
{"sequence": "ACTTTGCCTTGGGTTCTAACCTGTTGCCT (site ACCTTGCCTAG)", "recombinant barcode read abundance (log10)": 0.0879}
{"sequence": "ACTTTGCCTTGGGTTCTAACCTGTTGCCT (site ACGTTGCCTAG)", "recombinant barcode read abundance (log10)": 0.0319}
{"sequence": "ACTTTGCCTTGGGTTCTAACCTGTTGCCT (site ACTTTGCCTAG)", "recombinant barcode read abundance (log10)": 0.953}
{"sequence": "AGAAAGTCTTGGGTTCTAACCTGTTGCGT (site AGAAAGTCTAC)", "recombinant barcode read abundance (log10)": 2.36}
{"sequence": "AGAAAGTCTTGGGTTCTAACCTGTTGCGT (site AGAGAGTCTAG)", "recombinant barcode read abundance (log10)": 0.363}
{"sequence": "AGAAATACTTGGGTTCTAACCTGTTGCCG (site AGAAATACTCG)", "recombinant barcode read abundance (log10)": 1.07}
{"sequence": "AGAAATACTTGGGTTCTAACCTGTTGCCG (site GTCCTACCTTA)", "recombinant barcode read abundance (log10)": 0.0574}
{"sequence": "AGAACAACTTGGGTTCTAACCTGTTGCCT (site AGAACAACTAG)", "recombinant barcode read abundance (log10)": 0.388}
{"sequence": "AGAACAACTTGGGTTCTAACCTGTTGCCT (site AGCACAACTAG)", "recombinant barcode read abundance (log10)": 0.035}
{"sequence": "AGAACAACTTGGGTTCTAACCTGTTGCCT (site AGGACAACTAG)", "recombinant barcode read abundance (log10)": 0.456}
{"sequence": "AGAACAACTTGGGTTCTAACCTGTTGCCT (site AGTACAACTAG)", "recombinant barcode read abundance (log10)": 0.102}
{"sequence": "AGAACTACTTGGGTTCTAACCTGTTGCCA (site AGAACTACTTG)", "recombinant barcode read abundance (log10)": 0.0417}
{"sequence": "AGAACTACTTGGGTTCTAACCTGTTGCCA (site CTCGTGTCTAT)", "recombinant barcode read abundance (log10)": 0.0514}
{"sequence": "AGAAGTACTTGGGTTCTAACCTGTTGCGG (site AGAAGTACTCC)", "recombinant barcode read abundance (log10)": 1.86}
{"sequence": "AGAAGTACTTGGGTTCTAACCTGTTGCGG (site GTAAGTACTCC)", "recombinant barcode read abundance (log10)": 0.0235}
{"sequence": "AGAATATCTTGGGTTCTAACCTGTTGCCT (site AGAATATCTAG)", "recombinant barcode read abundance (log10)": 0.834}
{"sequence": "AGAATATCTTGGGTTCTAACCTGTTGCCT (site AGATTATCTAG)", "recombinant barcode read abundance (log10)": 0.193}
{"sequence": "AGACATCCTTGGGTTCTAACCTGTTGCTT (site AGACATCCTAA)", "recombinant barcode read abundance (log10)": 0.948}
{"sequence": "AGACATCCTTGGGTTCTAACCTGTTGCTT (site AGACCTCCTAA)", "recombinant barcode read abundance (log10)": 0.0971}
{"sequence": "AGACATCCTTGGGTTCTAACCTGTTGCTT (site AGACGTCCTAA)", "recombinant barcode read abundance (log10)": 0.0527}
{"sequence": "AGACATCCTTGGGTTCTAACCTGTTGCTT (site AGACTTCCTAA)", "recombinant barcode read abundance (log10)": 0.195}
{"sequence": "AGACCACCTTGGGTTCTAACCTGTTGCCT (site AAACCACCTAG)", "recombinant barcode read abundance (log10)": 0.383}
{"sequence": "AGACCACCTTGGGTTCTAACCTGTTGCCT (site ACACCACCTAG)", "recombinant barcode read abundance (log10)": 0.234}
{"sequence": "AGACCACCTTGGGTTCTAACCTGTTGCCT (site AGACCACCTAG)", "recombinant barcode read abundance (log10)": 1.82}
{"sequence": "AGACCACCTTGGGTTCTAACCTGTTGCCT (site ATACCACCTAG)", "recombinant barcode read abundance (log10)": 0.847}
{"sequence": "AGACGGACTTGGGTTCTAACCTGTTGCCA (site AGACGGACTTG)", "recombinant barcode read abundance (log10)": 1.68}
{"sequence": "AGACGGACTTGGGTTCTAACCTGTTGCCA (site CTTGCTCCTAT)", "recombinant barcode read abundance (log10)": 0.145}
{"sequence": "AGACTAGCTTGGGTTCTAACCTGTTGCGT (site AGACTAGCTAC)", "recombinant barcode read abundance (log10)": 2.51}
{"sequence": "AGACTAGCTTGGGTTCTAACCTGTTGCGT (site TTACTAGCTAC)", "recombinant barcode read abundance (log10)": 0.255}
{"sequence": "AGACTCCCTTGGGTTCTAACCTGTTGCCT (site AGACTCCCTAG)", "recombinant barcode read abundance (log10)": 1.22}
{"sequence": "AGACTCCCTTGGGTTCTAACCTGTTGCCT (site AGCCTCCCTAG)", "recombinant barcode read abundance (log10)": 0.223}
{"sequence": "AGACTCCCTTGGGTTCTAACCTGTTGCCT (site AGGCTCCCTAG)", "recombinant barcode read abundance (log10)": 0.0602}
{"sequence": "AGACTCCCTTGGGTTCTAACCTGTTGCCT (site AGTCTCCCTAG)", "recombinant barcode read abundance (log10)": 0.213}
{"sequence": "AGAGAACCTTGGGTTCTAACCTGTTGCCT (site AGAGAACCTAG)", "recombinant barcode read abundance (log10)": 2.33}
{"sequence": "AGAGAACCTTGGGTTCTAACCTGTTGCCT (site CGAGAACCTAG)", "recombinant barcode read abundance (log10)": 0.415}
{"sequence": "AGAGAACCTTGGGTTCTAACCTGTTGCCT (site GGAGAACCTAG)", "recombinant barcode read abundance (log10)": 0.219}
{"sequence": "AGAGAACCTTGGGTTCTAACCTGTTGCCT (site TGAGAACCTAG)", "recombinant barcode read abundance (log10)": 1.14}
{"sequence": "AGAGAATCTTGGGTTCTAACCTGTTGCCT (site AGAGAATCTAG)", "recombinant barcode read abundance (log10)": 1.28}
{"sequence": "AGAGAATCTTGGGTTCTAACCTGTTGCCT (site AGCGAATCTAG)", "recombinant barcode read abundance (log10)": 0.165}
{"sequence": "AGAGAATCTTGGGTTCTAACCTGTTGCCT (site AGGGAATCTAG)", "recombinant barcode read abundance (log10)": 0.13}
{"sequence": "AGAGAATCTTGGGTTCTAACCTGTTGCCT (site AGTGAATCTAG)", "recombinant barcode read abundance (log10)": 0.196}
{"sequence": "AGAGATGCTTGGGTTCTAACCTGTTGCAG (site AGAGATGCTCT)", "recombinant barcode read abundance (log10)": 1.8}
{"sequence": "AGAGATGCTTGGGTTCTAACCTGTTGCAG (site AGAGGAGCTCT)", "recombinant barcode read abundance (log10)": 0.289}
{"sequence": "AGAGCCACTTGGGTTCTAACCTGTTGCTA (site AGAGCCACTTA)", "recombinant barcode read abundance (log10)": 2.09}
{"sequence": "AGAGCCACTTGGGTTCTAACCTGTTGCTA (site GCCATTCCTAT)", "recombinant barcode read abundance (log10)": 0.0124}
{"sequence": "AGAGGGTCTTGGGTTCTAACCTGTTGCTT (site AGAGGGTCTAA)", "recombinant barcode read abundance (log10)": 1.82}
{"sequence": "AGAGGGTCTTGGGTTCTAACCTGTTGCTT (site CGAGGGTCTAA)", "recombinant barcode read abundance (log10)": 0.186}
{"sequence": "AGAGGGTCTTGGGTTCTAACCTGTTGCTT (site GGAGGGTCTAA)", "recombinant barcode read abundance (log10)": 0.0269}
{"sequence": "AGAGGGTCTTGGGTTCTAACCTGTTGCTT (site TGAGGGTCTAA)", "recombinant barcode read abundance (log10)": 0.606}
{"sequence": "AGATCGGCTTGGGTTCTAACCTGTTGCCT (site AGATCGGCTAG)", "recombinant barcode read abundance (log10)": 0.377}
{"sequence": "AGATCGGCTTGGGTTCTAACCTGTTGCCT (site AGGTCGGCTAG)", "recombinant barcode read abundance (log10)": 0.0375}
{"sequence": "AGATTGACTTGGGTTCTAACCTGTTGCCA (site AGATTCACTAG)", "recombinant barcode read abundance (log10)": 0.328}
{"sequence": "AGATTGACTTGGGTTCTAACCTGTTGCCA (site AGATTGACTTG)", "recombinant barcode read abundance (log10)": 0.193}
{"sequence": "AGATTGCCTTGGGTTCTAACCTGTTGCCT (site AGATTGCCTAG)", "recombinant barcode read abundance (log10)": 0.489}
{"sequence": "AGATTGCCTTGGGTTCTAACCTGTTGCCT (site TGATTTCCTAG)", "recombinant barcode read abundance (log10)": 0}
{"sequence": "AGCAGAGCTTGGGTTCTAACCTGTTGCGG (site AGCAGAGCTCA)", "recombinant barcode read abundance (log10)": 1.12}
{"sequence": "AGCAGAGCTTGGGTTCTAACCTGTTGCGG (site AGCAGAGCTCC)", "recombinant barcode read abundance (log10)": 1.95}
{"sequence": "AGCAGAGCTTGGGTTCTAACCTGTTGCGG (site AGCAGAGCTCG)", "recombinant barcode read abundance (log10)": 0.0598}
{"sequence": "AGCAGAGCTTGGGTTCTAACCTGTTGCGG (site AGCAGAGCTCT)", "recombinant barcode read abundance (log10)": 1.1}
{"sequence": "AGCAGCCCTTGGGTTCTAACCTGTTGCAG (site AGCAGCCCTCT)", "recombinant barcode read abundance (log10)": 1.72}
{"sequence": "AGCAGCCCTTGGGTTCTAACCTGTTGCAG (site GTTCCAGCTAG)", "recombinant barcode read abundance (log10)": 0.0963}
{"sequence": "AGCATAACTTGGGTTCTAACCTGTTGCCT (site AGCATAACTAG)", "recombinant barcode read abundance (log10)": 0.187}
{"sequence": "AGCATAACTTGGGTTCTAACCTGTTGCCT (site AGGAGAACTAG)", "recombinant barcode read abundance (log10)": 0.261}
{"sequence": "AGCCACGCTTGGGTTCTAACCTGTTGCCT (site AGCCACACTAG)", "recombinant barcode read abundance (log10)": 0.124}
{"sequence": "AGCCACGCTTGGGTTCTAACCTGTTGCCT (site AGCCACCCTAG)", "recombinant barcode read abundance (log10)": 0.27}
{"sequence": "AGCCACGCTTGGGTTCTAACCTGTTGCCT (site AGCCACGCTAG)", "recombinant barcode read abundance (log10)": 1.11}
{"sequence": "AGCCACGCTTGGGTTCTAACCTGTTGCCT (site AGCCACTCTAG)", "recombinant barcode read abundance (log10)": 0.153}
{"sequence": "AGCCATCCTTGGGTTCTAACCTGTTGCAT (site AGCCATCCTAT)", "recombinant barcode read abundance (log10)": 0.723}
{"sequence": "AGCCATCCTTGGGTTCTAACCTGTTGCAT (site TGCCATCCTAT)", "recombinant barcode read abundance (log10)": 0.0638}
{"sequence": "AGCCCGCCTTGGGTTCTAACCTGTTGCCT (site AGCCCGCCTAG)", "recombinant barcode read abundance (log10)": 0.358}
{"sequence": "AGCCCGCCTTGGGTTCTAACCTGTTGCCT (site CGCCCGCCTAG)", "recombinant barcode read abundance (log10)": 0.39}
{"sequence": "AGCCCGCCTTGGGTTCTAACCTGTTGCCT (site GGCCCGCCTAG)", "recombinant barcode read abundance (log10)": 0.178}
{"sequence": "AGCCCGCCTTGGGTTCTAACCTGTTGCCT (site TGCCCGCCTAG)", "recombinant barcode read abundance (log10)": 0.157}
{"sequence": "AGCCCTTCTTGGGTTCTAACCTGTTGCTT (site AGCCCTTCTAA)", "recombinant barcode read abundance (log10)": 0.083}
{"sequence": "AGCCCTTCTTGGGTTCTAACCTGTTGCTT (site GTAGGGACTCG)", "recombinant barcode read abundance (log10)": 0.0698}
{"sequence": "AGCCTCCCTTGGGTTCTAACCTGTTGCCA (site AGCCTCCCTTG)", "recombinant barcode read abundance (log10)": 0.663}
{"sequence": "AGCCTCCCTTGGGTTCTAACCTGTTGCCA (site CAGGGGTCTAT)", "recombinant barcode read abundance (log10)": 0.121}
